The source of these data is US7714135B2, “Tetrahydropyridothiophenes for the treatment of proliferative diseases such as cancer” (4SC AG, priority 2005, dated 2010).

The term IC50 denotes the concentration that gives 50% inhibition.

Experiment [1] deals with RKO (RKOp27) human colon adenocarcinoma cells. The experiment is described as follows: Alamar Blue cell viability assay, anti-proliferative/cytotoxic activity on proliferating (uninduced) RKOp27 cells. Type of experiment: cell-based. The note with it: RKOp27 subclone without inducer, 72 hours incubation, read-out: IC50 RKO p27 uninduced (proliferating). The procedure:
The anti-proliferative/cytotoxic activity of the compounds described herein, can be tested on subclones of RKO (RKOp27) human colon adenocarcinoma cells (Schmidt et al., Oncogene 19, 2423-2429; 2000) using the Alamar Blue cell viability assay (described in O'Brien et al. Eur J Biochem 267, 5421-5426, 2000). The compounds are dissolved as 20 mM solutions in dimethylsulfoxide (DMSO) and subsequently diluted in semi-logarithmic steps. DMSO dilutions are further diluted 1:100 into Dulbecco's modified Eagle's medium (DMEM) containing 10% fetal calf serum to a final concentration twice as much as the final concentration in the test. RKO subclones are seeded into 96 well flat bottom plates at a density of 4000 cells per well in a volume of 50 μl per well. 24 hours after seeding the 50 μl each of the compound dilutions in DMEM medium are added into each well of the 96 Well plate. Each compound dilution is tested as quadruplicates. Wells containing untreated control cells are filled with 50 μl DMEM medium containing 1% DMSO. The cells are then incubated with the substances for 72 hours at 37° C. in a humidified atmosphere containing 5% carbon dioxide. To determine the viability of the cells, 10 μl of an Alamar Blue solution (Biosource) are added and the fluorescence is measured at an extinction of 544 nm and an emission of 590 nm. For the calculation of the cell viability the emission value from untreated cells is set as 100% viability and the emission rates of treated cells are set in relation to the values of untreated cells. Viabilities are expressed as % values.
The corresponding IC50 values of the compounds for anti-proliferative/cytotoxic activity are determined from the concentration-effect curves.
Representative IC50 values for anti-proliferation/cytotoxicity determined in the mentioned assay follow from the following table A, in which the numbers of the compound correspond to the numbers of the examples.
(Resazurin is reduced to fluorescent resorufin, in cell work by metabolically active cells.)

Experiment [2] has as its system RKO colon adenocarcinoma cells (RKOp27) arrested by the expression of ectopic p27Kip1. The experiment in a line: Alamar Blue cell viability assay on RKOp27 cells arrested by Ponasterone A-induced p27Kip1 expression (cell cycle specific mode of action). Type of experiment: cell-based. The note with it: Homo sapiens, RKOp27 subclone induced with 10 μM Ponasterone A, 72 hours incubation, read-out: IC50 RKO p27 induced (arrested). The procedure:
To determine the cell cycle specific mode of action, subclones of RKO colon adenocarcinoma cells (RKOp27 or RKOp21 as described by Schmidt et al. in Oncogene 19, 2423-2429; 2000) are seeded into 96 well flat bottom plates at a density of 16000 cells per well in a volume of 50 μl per well in DMEM growth medium with 10% FCS containing 10 μM Ponasterone A. 24 hours after seeding the 50 μl each of the compound dilutions in DMEM medium are added into each well of the 96 Well plate. Each compound dilution is tested as quadruplicates. Wells containing untreated control cells are filled with 50 μl DMEM medium containing 1% DMSO. The cells are then incubated with the substances for 72 hours at 37° C. in a humidified atmosphere containing 5% carbon dioxide. To determine the viability of the cells, 10 μl of an Alamar Blue solution (Biosource) are added and the fluorescence was measured at an extinction of 544 nm and an emission of 590 nm. For the calculation of the cell viability the emission value from untreated cells is set as 100% viability and the emission rates of treated cells are set in relation to the values of untreated cells. Viabilities are expressed as % values. Viability is compared of proliferating cells grown in the absence of the inducer Ponasterone A, versus viability of cells arrested by the expression of ectopic p27Kip1 induced by Ponasterone A.

Consider `CCOC(=O)N1CCc2c(sc(NC(=O)CCc3ccccc3)c2C#N)C1` [Example 1, 3-Cyano-2-(3-phenyl-propanoylamino)-4,7-dihydro-5H-thieno[2,3-c]pyridine-6-carboxylic acid ethyl ester], for which the IC50 was not above 300 nM in experiment [1] and more than 100000 nM in experiment [2].
As for `N#Cc1c(NC(=O)CCc2ccccc2)sc2c1CCN(C(=O)OCC(O)CO)C2` (stereo not shown) [Example 31, 3-Cyano-2-(3-phenyl-propanoylamino)-4,7-dihydro-5H-thieno[2,3-c]pyridine-6-carboxylic acid 2,3-dihydroxy-propyl ester], the IC50 was not above 300 nM in experiment [1] and more than 100000 nM in experiment [2].
Take `N#Cc1c(NC(=O)CCc2ccco2)sc2c1CCN(C(=O)OCc1ccccn1)C2` [Example 42, 3-Cyano-2-(3-furan-2-yl-propanoylamino)-4,7-dihydro-5H-thieno[2,3-c]pyridine-6-carboxylic acid pyridin-2-ylmethyl ester]: the IC50 in experiment [1] was not above 300 nM; in experiment [2], more than 100000 nM.
For `COCCOC(=O)N1CCc2c(sc(NC(=O)CCc3ccccc3)c2C#N)C1` [Example 24, 3-Cyano-2-(3-phenyl-propanoylamino)-4,7-dihydro-5H-thieno[2,3-c]pyridine-6-carboxylic acid 2-methoxy-ethyl ester], the IC50 was not above 300 nM in experiment [1] and more than 100000 nM in experiment [2].
Turning to `CCOC(=O)N1CCc2c(sc(NC(=O)CCC3CCCO3)c2C#N)C1` (stereo not shown) [Example 21, 3-Cyano-2-(3-tetrahydro-furan-2-yl-propanoylamino)-4,7-dihydro-5H-thieno[2,3-c]pyridine-6-carboxylic acid ethyl ester], the results for the IC50 in experiment [1] and in experiment [2] were not above 300 nM and more than 100000 nM, respectively.
With `CCOC(=O)N1CCc2c(sc(NC(=O)CCc3cccc4c3OCCO4)c2C#N)C1` [Example 34, 3-Cyano-2-(3-2,3-dihydro-benzo[1,4]dioxin-5-yl-propanoylamino)-4,7-dihydro-5H-thieno[2,3-c]pyridine-6-carboxylic acid ethyl ester], the IC50 in experiment [1] is 300 to 2000 nM; in experiment [2] it was more than 100000 nM.
Take `CCOC(=O)N1CCc2c(sc(NC(=O)CCc3ccccc3C)c2C#N)C1` [Example 3, 3-Cyano-2-(3-o-tolyl-propanoylamino)-4,7-dihydro-5H-thieno[2,3-c]pyridine-6-carboxylic acid ethyl ester]: the half-maximal inhibitory concentration (IC50) was not above 300 nM in experiment [1] and more than 100000 nM in experiment [2].
For `COCCOC(=O)N1CCc2c(sc(NC(=O)CCc3cccnc3)c2C#N)C1` [Example 37, 3-Cyano-2-(3-pyridin-3-yl-propanoylamino)-4,7-dihydro-5H-thieno[2,3-c]pyridine-6-carboxylic acid 2-methoxy-ethyl ester], the concentration for half-maximal inhibition (IC50) was 300 to 2000 nM in experiment [1] and not below 40000 nM in experiment [2].
On to `N#Cc1c(NC(=O)CCc2cccnc2)sc2c1CCN(C(=O)OCc1cccnc1)C2` [Example 39, 3-Cyano-2-(3-pyridin-3-yl-propanoylamino)-4,7-dihydro-5H-thieno[2,3-c]pyridine-6-carboxylic acid pyridin-3-ylmethyl ester], for which the IC50 was 300 to 2000 nM in experiment [1] and more than 100000 nM in experiment [2].
As for `CCOC(=O)N1CCc2c(sc(NC(=O)CCn3nccc3C)c2C#N)C1` [Example 20, 3-Cyano-2-[3-(5-methyl-pyrazol-1-yl)-propanoylamino]-4,7-dihydro-5H-thieno[2,3-c]pyridine-6-carboxylic acid ethyl ester], the IC50 in experiment [1] was 300 to 2000 nM; in experiment [2], more than 100000 nM.
In the case of `CCOC(=O)N1CCc2c(sc(NC(=O)CCc3cccc(F)c3)c2C#N)C1` [Example 12, 3-Cyano-2-[3-(3-fluoro-phenyl)-propanoylamino]-4,7-dihydro-5H-thieno[2,3-c]pyridine-6-carboxylic acid ethyl ester], the values for the IC50 in experiment [1] and in experiment [2] were not above 300 nM and more than 100000 nM, respectively.
Regarding `CCOC(=O)N1CCc2c(sc(NC(=O)CCc3cccc(C)c3)c2C#N)C1` [Example 18, 3-Cyano-2-(3-m-tolyl-propanoylamino)-4,7-dihydro-5H-thieno[2,3-c]pyridine-6-carboxylic acid ethyl ester], the IC50 in experiment [1] was not above 300 nM; in experiment [2], more than 100000 nM.
Take `CCOC(=O)N1CCc2c(sc(NC(=O)CCc3cccnc3)c2C#N)C1` [Example 9, 3-Cyano-2-(3-pyridin-3-yl-propanoylamino)-4,7-dihydro-5H-thieno[2,3-c]pyridine-6-carboxylic acid ethyl ester]: the values for the half-maximal inhibitory concentration (IC50) in experiment [1] and in experiment [2] were 300 to 2000 nM and more than 100000 nM, respectively.
In the case of `CCOC(=O)N1CCc2c(sc(NC(=O)C(C)Cc3ccccc3)c2C#N)C1` (stereo not shown) [Example 6, 3-Cyano-2-(2-methyl-3-phenyl-propanoylamino)-4,7-dihydro-5H-thieno[2,3-c]pyridine-6-carboxylic acid ethyl ester], the IC50 in experiment [1] was 300 to 2000 nM; in experiment [2] it was more than 100000 nM.
Take `CCOC(=O)N1CCc2c(sc(NC(=O)CCc3ccccn3)c2C#N)C1` [Example 36, 3-Cyano-2-(3-pyridin-2-yl-propanoylamino)-4,7-dihydro-5H-thieno[2,3-c]pyridine-6-carboxylic acid ethyl ester]: the IC50 was not above 300 nM in experiment [1] and more than 100000 nM in experiment [2].
`N#Cc1c(NC(=O)CCc2cccnc2)sc2c1CCN(C(=O)OCCc1ccccn1)C2` [Example 46, 3-Cyano-2-(3-pyridin-3-yl-propanoylamino)-4,7-dihydro-5H-thieno[2,3-c]pyridine-6-carboxylic acid 2-pyridin-2-yl-ethyl ester]: the IC50 in experiment [1] is 300 to 2000 nM; in experiment [2], more than 100000 nM.
For `CCOC(=O)N1CCc2c(sc(NC(=O)CC(C)c3ccccc3)c2C#N)C1` (racemic) [Example 4, 3-Cyano-2-((RS)-3-phenyl-butanoylamino)-4,7-dihydro-5H-thieno[2,3-c]pyridine-6-carboxylic acid ethyl ester] the same measures were not above 300 nM and more than 100000 nM.
`CCOC(=O)N1CCc2c(sc(NC(=O)CCc3cccc4c3OCO4)c2C#N)C1` [Example 32, 2-(3-Benzo[1,3]dioxol-4-yl-propanoylamino)-3-cyano-4,7-dihydro-5H-thieno[2,3-c]pyridine-6-carboxylic acid ethyl ester]: the IC50 in experiment [1] was not above 300 nM; in experiment [2], more than 100000 nM.
`N#Cc1c(NC(=O)CCc2ccccn2)sc2c1CCN(C(=O)OCCc1cccnc1)C2` [Example 107, 3-Cyano-2-(3-pyridin-2-yl-propanoylamino)-4,7-dihydro-5H-thieno[2,3-c]pyridine-6-carboxylic acid 2-pyridin-3-yl-ethyl ester]: the half-maximal inhibitory concentration (IC50) in experiment [1] is 300 to 2000 nM; in experiment [2] it was more than 100000 nM.
Regarding `N#Cc1c(NC(=O)CCc2ccccc2)sc2c1CCN(C(=O)OCc1ccncc1)C2` [Example 29, 3-Cyano-2-(3-phenyl-propanoylamino)-4,7-dihydro-5H-thieno[2,3-c]pyridine-6-carboxylic acid pyridin-4-ylmethyl ester], the IC50 is not above 300 nM in experiment [1] and more than 100000 nM in experiment [2].
Consider `CCOC(=O)N1CCc2c(sc(NC(=O)CCc3cc(C)c(C)o3)c2C#N)C1` [Example 11, 3-Cyano-2-[3-(4,5-dimethyl-furan-2-yl)-propanoylamino]-4,7-dihydro-5H-thieno[2,3-c]pyridine-6-carboxylic acid ethyl ester], for which the IC50 is not above 300 nM in experiment [1] and more than 100000 nM in experiment [2].
Regarding `CCOC(=O)N1CCc2c(sc(NC(=O)CCc3ccc(C)cc3)c2C#N)C1` [Example 14, 3-Cyano-2-(3-p-tolyl-propanoylamino)-4,7-dihydro-5H-thieno[2,3-c]pyridine-6-carboxylic acid ethyl ester], the 50% inhibitory concentration (IC50) in experiment [1] is not above 300 nM; in experiment [2] it was more than 100000 nM.
With `CC(C)(C)OC(=O)N1CCc2c(sc(NC(=O)CCc3ccccc3)c2C#N)C1` [Example 22, 3-Cyano-2-(3-phenyl-propanoylamino)-4,7-dihydro-5H-thieno[2,3-c]pyridine-6-carboxylic acid tert-butyl ester], the concentration for half-maximal inhibition (IC50) in experiment [1] is not above 300 nM; in experiment [2], more than 100000 nM.
